Measurements reported in patent US20240285644A1, “ASSESSING AND TREATING PROSTATE CANCER” (Mayo Foundation for Medical Education and Research, priority 2021, published 2024).
“Also recorded” adds a separate entry of the source.

Legend:
LNCaP cells = assay: Quantitative colony forming assay, cell survival of antiandrogen-sensitive LNCaP cells; format: cell-based; conditions: for cell survival of LNCaP cells: increasing concentrations of recombinant human NRG-1, vehicle versus enzalutamide (3 μM)
Description: It was next examined whether NRG-1 polypeptides differentially affect antiandrogen-sensitive and resistant prostate cancer cells. Antiandrogen-sensitive LNCaP prostate cancer cells express androgen receptor, whereas antiandrogen-resistant Du145 and PC3 cells express very limited androgen receptor (FIG. 3A).
The paradoxical toxic and salutary effects of NRG-1 polypeptides on antiandrogen-sensitive versus antiandrogen-resistant cells mirrors the outcomes in CSPC and CRPC patients, respectively.
LNCaP cells were then transfected with control shRNA versus shRNA targeting HER3 (FIG. 8A). Knockdown of HER3 rescued LNCaP cells from NRG-1- and enzalutamide-induced cell death (FIG. 7D and FIG. 8B). Relatedly, knockdown of HER2—but not HER4—reduces or eliminates Du145 cell benefit from NRG-1 polypeptide treatment (FIG. 8C-8D). To further confirm that HER2/HER3 heterodimerization can mediate a pro-survival response to NRG-1 polypeptides in CRPC, LNCaP cells were treated with lapatinib that induces HER2/HER3 heterodimerization.

NRG-1 = assay: Blood levels of NRG-1 in patients with cancer before and during PARP inhibitor treatment; format: in vivo, human; conditions: two patients with cancer (001 niraparib, 002 olaparib), Day 0 versus Days 7, 14
Description: Blood levels of NRG-1 of five patients with cancer were measured prior to and during treatment with PARP inhibitors.

In the case of `CNC(=O)c1ccc(N2C(=S)N(c3ccc(C#N)c(C(F)(F)F)c3)C(=O)C2(C)C)cc1F` [enzalutamide], the “cell survival of LNCaP cells” value (LNCaP cells) is reported as “function in an additive manner” and the “cell survival of LNCaP cells” value (LNCaP cells; listed as Enz) is reported as “induced death of LNCaP cells in an additive fashion”.

`CS(=O)(=O)CCNCc1ccc(-c2ccc3ncnc(Nc4ccc(OCc5cccc(F)c5)c(Cl)c4)c3c2)o1` [lapatinib] was tested, and the “effect of pre-treatment on NRG-1- and antiandrogen-mediated death of LNCaP cells” value (LNCaP cells; pre-treatment with lapatinib, then NRG-1 and enzalutamide) was “rescues LNCaP cells from antiandrogen enzalutamide and NRG-1; also recorded: abolished NRG-1- and antiandrogen-mediated cell death”.

`NC(=O)c1cccc2cn(-c3ccc([C@@H]4CCCNC4)cc3)nc12` [niraparib] was tested, and the “blood levels of NRG-1” value (NRG-1) was “reduced over the course of treatment”.

In the case of `O=C(c1cc(Cc2n[nH]c(=O)c3ccccc23)ccc1F)N1CCN(C(=O)C2CC2)CC1` [olaparib], the “blood levels of NRG-1” value (NRG-1) is reported as “reduced over the course of treatment” and the “blood levels of NRG-1” value (NRG-1; listed as Olaparib) is reported as “reduced”.
